Consider two molecules from PMC4317228 (Pharmacology Research & Perspectives, 2014).

Each structure is given as a SMILES string.

Assay [1] deals with T1, human metabotropic glutamate type 2 receptor (hmGlu2) (Homo sapiens, UniProt Q14416).
T1 construct: gene GRM2; full-length receptor, stably expressed in CHO cells (membranes)
The experiment in a line: [3H]DCG-IV saturation binding, hmGlu2 CHO membranes.

The target of assay [2] is T2, human 5HT2A receptor (h5HT2A) (Homo sapiens, UniProt P28223).
T2 construct: gene HTR2A
T2 sequence (P28223 whole entry): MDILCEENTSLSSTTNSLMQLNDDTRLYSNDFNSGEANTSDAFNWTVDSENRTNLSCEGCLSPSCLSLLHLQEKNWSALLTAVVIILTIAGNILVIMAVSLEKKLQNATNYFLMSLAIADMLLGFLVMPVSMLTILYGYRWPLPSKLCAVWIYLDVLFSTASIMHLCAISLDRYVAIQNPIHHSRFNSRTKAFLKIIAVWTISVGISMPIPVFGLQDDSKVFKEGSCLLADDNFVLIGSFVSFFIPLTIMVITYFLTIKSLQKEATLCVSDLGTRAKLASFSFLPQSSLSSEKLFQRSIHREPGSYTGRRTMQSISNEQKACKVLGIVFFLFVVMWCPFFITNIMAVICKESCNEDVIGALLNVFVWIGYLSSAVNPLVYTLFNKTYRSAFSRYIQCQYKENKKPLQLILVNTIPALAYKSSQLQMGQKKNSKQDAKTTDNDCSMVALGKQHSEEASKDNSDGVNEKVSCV
The experiment in a line: [3H]ketanserin displacement.

T1 sequence (Q14416 19-872): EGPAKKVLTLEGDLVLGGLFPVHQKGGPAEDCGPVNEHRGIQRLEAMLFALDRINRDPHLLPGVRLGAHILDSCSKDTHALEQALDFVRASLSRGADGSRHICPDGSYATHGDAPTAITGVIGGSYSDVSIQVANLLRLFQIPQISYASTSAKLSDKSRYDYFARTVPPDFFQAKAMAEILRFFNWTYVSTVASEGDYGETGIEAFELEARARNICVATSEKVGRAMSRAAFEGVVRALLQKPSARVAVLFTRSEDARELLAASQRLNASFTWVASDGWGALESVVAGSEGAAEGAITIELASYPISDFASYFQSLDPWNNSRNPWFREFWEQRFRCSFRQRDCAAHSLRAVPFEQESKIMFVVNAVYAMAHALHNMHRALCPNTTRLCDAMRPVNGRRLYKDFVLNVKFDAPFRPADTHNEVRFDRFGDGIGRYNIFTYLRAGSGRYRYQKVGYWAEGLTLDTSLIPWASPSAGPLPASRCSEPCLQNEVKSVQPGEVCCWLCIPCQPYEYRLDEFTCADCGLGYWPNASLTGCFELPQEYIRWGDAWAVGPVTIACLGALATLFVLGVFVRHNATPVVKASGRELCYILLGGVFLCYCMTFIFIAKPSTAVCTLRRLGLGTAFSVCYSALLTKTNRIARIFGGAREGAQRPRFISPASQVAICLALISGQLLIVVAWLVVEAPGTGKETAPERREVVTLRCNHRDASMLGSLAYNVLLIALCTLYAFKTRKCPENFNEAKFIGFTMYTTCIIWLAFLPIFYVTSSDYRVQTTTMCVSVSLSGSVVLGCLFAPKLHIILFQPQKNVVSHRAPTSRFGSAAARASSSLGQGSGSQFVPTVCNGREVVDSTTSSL

The molecule `N[C@H](C(=O)O)C1[C@@H](C(=O)O)[C@@H]1C(=O)O` (some centres unmarked) [DCG-IV] registered a Kd in assay [1] of 200 nM.

With `CCCCn1ccc(N2CCC(c3ccc(O)cc3)CC2)c(Cl)c1=O` [JNJ-42159052], the 50% inhibitory concentration (IC50) in assay [2] is 102 nM.
